pEC50: −log10 of the molar value. Like-named read-outs stand apart in the source and are kept apart here.
Key:
[1] = Drug metabolism experiment on prodrug in SD rats: plasma pharmacokinetic parameters; type: in vivo; conditions: plasma; for AUC(0-inf) / AUC(0-t) / Tmax / half-life / Cmax: male, Sprague-Dawley (SD), rat, po, 3 mg/kg
Description: (§1) Test 3: Drug metabolism experiment on prodrug in SD rats
(§2) In the experiment, […] of 12 male SD rats having similar body weights were selected and orally administered compound 9, compound 10, and the control drug VK2809 (the prodrug of MB07444, structured as shown below) at a dose of 3 mg/kg at a single time, respectively, and blood and liver samples were collected at different time points.
(§3) Solutions of compound 9/compound 10 and VK2809 with a final concentration of 0.6 mg/mL were respectively prepared, and the ratio between the solvents used for the preparation was PEG400: pure water =50:50 (v/v).
(§4) No randomization was performed. The weights of the animals were measured before administration, and healthy animals with similar body weights were selected for inclusion in the experiment. The oral dose was 3 mg/kg.
(§5) At least 0.2 mL of blood was collected from the tail vein or jugular vein, and heparin sodium was used as the anticoagulant.
15 min, 30 min, 1 h, 2 h, 4 h, 6 h, 8 h, 24 h after administration.
(§6) After being collected, a blood sample was placed in a marked ice-water bath centrifuge tube, plasma was quickly separated by centrifugation under centrifugation conditions: 3500 rpm, 10 minutes, and 4° C., and the plasma was stored under −40° C. for testing.
(§7) Q TRAP6500 mass spectrometer with ESI source was used to perform negative ion MRM scanning. An LC-MS/MS analysis method was used to detect the contents of compound 9, compound 10 and its active metabolite 1, VK2809 and its active metabolite MB07444 in the plasma and liver. The metabolic kinetics data analysis software WinNonlin 7.0 was used to calculate the concentration data of plasma, and the non-compartmental model (NCA) method was used to calculate the pharmacokinetic parameters.

[2] = Drug metabolism experiment on prodrug in SD rats: concentration in liver compared with blood; type: in vivo; conditions: for Kp at 1 h / Kp at 4 h / Kp at 8 h / Kp at 24 h / concentration at 1 h / concentration at 4 h / concentration at 8 h / concentration at 24 h: male, rat, po, 3 mg/kg, SD rats; for Kp at 1 h / Kp at 4 h / Kp at 8 h / Kp at 24 h: read-out: Liver-to-blood ratio
Description: as §1, §2, §3, §4, §5, §6
After the liver sample was collected, its surface was washed with normal saline, dried with medical gauze, placed in a labeled small ziplock bag, and stored under −40° C. for testing.
as §7
The parameters of concentration in the livers of the SD rats and a comparison with the concentration in plasma are shown in Table 3 below: […]

THR-α = molecular target: T1, THR-α (Homo sapiens, UniProt P10827); test: Test of the binding ability of the compound to TRα (TRα LBD/RXRα, biotin-SRC2-2 co-activating peptide, 665/615 nm fluorescence ratio); type: biochemical
T1 construct: TR-a LBD, GST purchased from Thermo Fisher; purchased Thermo Fisher PV4762
T1 sequence (P10827 163-410 isoform P10827-2 limits assumed, other chains not shown): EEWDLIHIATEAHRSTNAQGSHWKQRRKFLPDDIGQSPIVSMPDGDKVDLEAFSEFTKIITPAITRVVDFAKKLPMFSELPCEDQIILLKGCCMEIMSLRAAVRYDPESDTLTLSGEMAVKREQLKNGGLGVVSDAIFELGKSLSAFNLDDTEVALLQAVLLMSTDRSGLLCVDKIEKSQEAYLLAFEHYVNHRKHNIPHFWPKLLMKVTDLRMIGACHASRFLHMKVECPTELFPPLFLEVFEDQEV
T1 sequence (P19793 whole entry partner, other chains not shown, the tested form may be a part): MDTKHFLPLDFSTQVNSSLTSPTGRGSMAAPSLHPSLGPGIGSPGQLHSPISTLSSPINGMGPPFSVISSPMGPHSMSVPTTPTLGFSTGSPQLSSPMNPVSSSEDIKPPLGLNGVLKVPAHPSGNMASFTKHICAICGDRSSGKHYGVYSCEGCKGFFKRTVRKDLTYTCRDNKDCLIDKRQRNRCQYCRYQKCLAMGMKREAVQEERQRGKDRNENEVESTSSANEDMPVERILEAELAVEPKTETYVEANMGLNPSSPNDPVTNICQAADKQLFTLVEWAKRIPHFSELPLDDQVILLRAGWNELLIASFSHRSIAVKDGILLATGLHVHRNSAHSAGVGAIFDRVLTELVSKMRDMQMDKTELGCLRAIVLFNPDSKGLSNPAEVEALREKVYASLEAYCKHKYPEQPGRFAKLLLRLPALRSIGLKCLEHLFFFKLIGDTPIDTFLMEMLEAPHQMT
Description: (§8) 4.2 The activity percentage was calculated as follows: […]
(§9) RatioCompound: Average of the relative ratios of the compound wells of the embodiments
(§10) RatioPositive: Average of the relative ratios of all positive control wells.
(§11) RatioBlank: Average of the relative ratios of all negative control wells.
(§12) EC50 was calculated by fitting the relationship between activity (%) and compound logarithmic concentration with Graphpad 5.0 by a nonlinear regression method.
(§13) Y=Bottom+ (top-bottom)/(1+10^((LogEC50−X)*slope))
(§14) X: Compound logarithmic concentration Y: Percentage activity

THR-β = molecular target: T2, THR-β (Homo sapiens, UniProt P10828); test: Test of the binding ability of the compound to TRβ (TRβ LBD/RXR, biotin-SRC2-2 co-activating peptide, 665/615 nm fluorescence ratio); type: biochemical
T2 construct: TRB LBD, GST purchased from Thermo Fisher; purchased Thermo Fisher PV4762
T2 sequence (P10828 217-461 limits assumed, other chains not shown): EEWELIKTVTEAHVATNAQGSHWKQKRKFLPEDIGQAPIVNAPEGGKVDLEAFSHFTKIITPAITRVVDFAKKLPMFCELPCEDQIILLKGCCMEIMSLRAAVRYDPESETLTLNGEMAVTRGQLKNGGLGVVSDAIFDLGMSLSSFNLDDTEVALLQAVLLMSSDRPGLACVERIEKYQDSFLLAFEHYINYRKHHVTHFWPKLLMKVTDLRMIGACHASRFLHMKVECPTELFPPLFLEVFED
T2 sequence (P28702 whole entry partner, other chains not shown, the tested form may be a part): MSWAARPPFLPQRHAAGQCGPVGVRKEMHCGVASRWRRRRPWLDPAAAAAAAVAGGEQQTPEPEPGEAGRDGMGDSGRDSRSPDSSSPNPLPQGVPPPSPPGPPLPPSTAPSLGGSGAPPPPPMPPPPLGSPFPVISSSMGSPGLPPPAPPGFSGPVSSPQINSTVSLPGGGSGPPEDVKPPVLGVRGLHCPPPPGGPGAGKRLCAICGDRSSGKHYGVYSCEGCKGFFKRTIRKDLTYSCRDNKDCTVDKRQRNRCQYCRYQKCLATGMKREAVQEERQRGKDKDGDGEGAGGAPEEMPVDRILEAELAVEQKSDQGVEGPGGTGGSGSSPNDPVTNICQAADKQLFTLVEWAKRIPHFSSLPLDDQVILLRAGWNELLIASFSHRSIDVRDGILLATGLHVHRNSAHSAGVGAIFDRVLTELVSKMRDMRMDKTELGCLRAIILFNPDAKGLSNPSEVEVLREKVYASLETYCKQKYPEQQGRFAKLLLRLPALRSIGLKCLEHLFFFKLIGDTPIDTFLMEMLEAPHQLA
Description: 1. Main experimental materials and instruments:
Biotin-SRC2-2 co-activating peptide purchased from Sangon Biotech (Shanghai) Co., Ltd.
TRB LBD, GST purchased from Thermo Fisher (product No. PV4762)
Europium-conjugated anti-glutathione antibody purchased from Cisbio (product No. 61GSTKLB)
Streptavidin-D2 purchased from Cisbio (product No. 610SADAB)
as §8, §9, §10, §11, §12, §13, §14

[3] = Sprague-Dawley (SD), liver / plasma (heading prints blood), oral 3 mg/kg Compound 9
[4] = Sprague-Dawley (SD), liver / plasma (heading prints blood), oral 3 mg/kg Compound 10
[5] = Sprague-Dawley (SD), liver, oral 3 mg/kg Compound 9, read-out: Ct Liver
[6] = Sprague-Dawley (SD), liver, oral 3 mg/kg Compound 10, read-out: Ct Liver
[7] = Sprague-Dawley (SD), plasma (heading prints blood), oral 3 mg/kg Compound 10, read-out: Ct Blood
[8] = Sprague-Dawley, plasma, oral 3 mg/kg Compound 9, read-out: Ct Blood
[9] = activity relative to positive control

Cc1cc(OCP(=O)(O)O)cc(C)c1Cc1ccc(O)c2c1CCC2(C)C [Compound 1, ((4-((7-hydroxy-1,1-dimethyl-2,3-dihydro-1H-indene-4-position)methyl)-3,5-dimethylphenoxy)methyl) phosphoric acid]
AUC(0-inf) ([1]; oral 3 mg/kg Compound 9): 1350 ng·h/mL
AUC(0-t) ([1]; oral 3 mg/kg Compound 9): 1290 ng·h/mL
Tmax ([1]; oral 3 mg/kg Compound 9): 4.67 h
half-life ([1]; oral 3 mg/kg Compound 9): 4.82 h
AUC(0-inf) ([1]; oral 3 mg/kg Compound 10): 613 ng·h/mL
AUC(0-t) ([1]; oral 3 mg/kg Compound 10): 586 ng·h/mL
Tmax ([1]; oral 3 mg/kg Compound 10): 6.67 h
half-life ([1]; oral 3 mg/kg Compound 10): 4.59 h
Cmax ([1]; oral 3 mg/kg Compound 9, read-out: Cmax): 134 ng/mL
Cmax ([1]; oral 3 mg/kg Compound 10, read-out: Cmax): 45.1 ng/mL
Kel ([1]; oral 3 mg/kg Compound 9): 0.147 h⁻¹
Kel ([1]; oral 3 mg/kg Compound 10): 0.154 h⁻¹
absolute concentration of active metabolite in the liver compared with control drug VK2809 ([2]; after prodrug compound 9, in words): higher than that of the control drug VK2809
liver-to-blood ratio compared with control drug ([2]; after prodrug compound 10, in words): significantly higher than that of the control drug
absolute concentration of active metabolite in the liver compared with MB07444 from VK2809 ([2]; after prodrug compound 10, same prodrug dose, in words): at least three times that of the active metabolite drug MB07444
Kp at 1 h [2, 3]: 20.8
Kp at 1 h [2, 4]: 29.1
Kp at 4 h [2, 3]: 16.2
Kp at 4 h [2, 4]: 20.6
Kp at 8 h [2, 3]: 25.5
Kp at 8 h [2, 4]: 17.7
Kp at 24 h [2, 3]: 47.1
concentration at 1 h [2, 5]: 312 ng/g
concentration at 1 h [2, 6]: 693 ng/g
concentration at 4 h [2, 5]: 1560 ng/g
concentration at 4 h [2, 6]: 2580 ng/g
concentration at 8 h [2, 5]: 762 ng/g
concentration at 8 h [2, 6]: 1710 ng/g
concentration at 24 h [2, 5]: 396 ng/g
concentration at 1 h [2, 7]: 5.4 ng/g
concentration at 4 h [2, 7]: 28.4 ng/g
concentration at 8 h [2, 7]: 43.6 ng/g
concentration at 24 h [2, 7]: 3.83 ng/g
concentration at 24 h ([2]; Sprague-Dawley, liver, oral 3 mg/kg Compound 10, read-out: Ct Liver): 431 ng/g
Kp at 24 h ([2]; Sprague-Dawley, liver/plasma, oral 3 mg/kg Compound 10): 121
concentration at 1 h [2, 8]: 15 ng/g
concentration at 4 h [2, 8]: 96.3 ng/g
concentration at 8 h [2, 8]: 29.9 ng/g
concentration at 24 h [2, 8]: 8.4 ng/g
pEC50 (THR-α): 7.39
Emax (THR-α; [9]): 96.4%
pEC50 (THR-β): 7.92
Emax (THR-β; [9]): 104%
α/β selectivity (multiple) (THR-β; calculated after being standardized with T3): 7.0 multiple
activity for THR-β compared with MB07444 (THR-β; in words): much higher than that of the contrast compound MB07444

Reference: patent US12378268B2, “Heterocyclic THR-β receptor agonist compound and preparation method and use therefor” (Hepagene Therapeutics (HK) Limited, priority 2019, dated 2025)
